Article PMC9943626, “CS27109, A Selective Thyroid Hormone Receptor-β Agonist Alleviates Metabolic-Associated Fatty Liver Disease in Murine Models” (International Journal of Endocrinology, 2023)
Read-outs that look alike come from different tables or passages of the source.

Tests used:
[1] = Tissue distribution in SD rat; assay type: in vivo; details: for concentration at 2 h / concentration at 8 h: male, 10 mg/kg oral gavage once
Source text: [Worded in the source for another organism; this organism is reported under the same test.] Half of mice for each group (n = 3) were sacrificed 2H and 8H after drug administration, respectively. Blood, heart, and liver were collected at each time point. Blood was processed and detected as mentioned previously. The heart and liver were homogenized and added extractant. The protein of tissue samples was precipitated by vortex oscillation, and the supernatant was collected and determined by LC-MS/MS procedures.

HFD-CHOL hamster model = assay: HFD-CHOL hamster model, serum biochemical test; assay type: in vivo, golden hamster; details: mean ± SD; for HDL-c: model 3.6 ± 1.1, normal 1.6 ± 0.45; for LDL-c: model 17 ± 6.1, normal 1.3 ± 0.54; for TG: model 26 ± 24, normal 2.1 ± 1.1; for TC: model 37 ± 13, normal 3.1 ± 0.72; for ALT: model 278 ± 174, normal 94 ± 58; for AST: model 638 ± 323, normal 98 ± 45
Method: Hamster study: 58 golden hamsters ♂ aged 6–8 weeks were purchased from Beijing Vital River Laboratory Animal Technology Co., Ltd. 10 animals were kept with a diet of food control as normal control, and the other 48 animals were fed 40% fat and 1.25% cholesterol (HFD-CHOL, D12108C, Research diet) as a model group. […] Animals in the normal and model group were given solvent by oral gavage. All drugs, including solvent, were administered consecutively for 4 weeks and once a day. After sacrifice, blood was collected and serum was isolated for the AST, ALT, TG, TC, LDL-c, and HDL-c test.

HFD SD rat model = assay: HFD SD rat model, biochemical, organ weight ratio, liver lipid and liver pathology; assay type: in vivo; details: for Liver TC / Liver TG: HFD SD rat liver; for Liver TC / Liver TG / TG / HDL-c / LDL-c / TC / ALT / AST / H/B (heart/body weight ratio) / L/B (liver/body weight ratio): mean ± SD; for Liver TC: model 13 ± 2.2, normal 6.0 ± 0.76; for Liver TG: model 102 ± 36, normal 0.75 ± 12; for TG / HDL-c / LDL-c / TC / ALT / AST: HFD SD rat serum; for TG: model 0.82 ± 0.73, normal 0.53 ± 0.34; for HDL-c: model 1.2 ± 0.44, normal 1.1 ± 0.13; for LDL-c: model 9.7 ± 6.1, normal 0.28 ± 0.06; for TC: model 20 ± 13, normal 1.5 ± 0.20; for ALT: model 166 ± 95, normal 32 ± 6.8; for AST: model 365 ± 212, normal 103 ± 21; for H/B (heart/body weight ratio): model 0.24 ± 0.02, normal 0.28 ± 0.02; for L/B (liver/body weight ratio): model 5.1 ± 0.75, normal 2.8 ± 0.26
Method: SD rat study: 58 SD rats ♂ aged 5–6 weeks were purchased from Beijing Huafukang Biotechnology Co., Ltd. 9 animals were kept with a food control diet as normal control, and the other 49 animals were fed 40% fat, 1.25% cholesterol and 0.5% sodium cholate (HFD, D12109C, SYSE BIO, Changzhou, China) as a model group. […] Animals in the normal and model groups were given solvent by oral gavage. All drugs, including solvent, were administered consecutively for 4 weeks and once a day. After sacrifice, blood was collected and serum was isolated for the AST, ALT, TG, TC, LDL-c, and HDL-c test, and livers and hearts were weighed to calculate the liver weight ratio and the heart weight ratio, respectively. The right lobe of the liver of each rat was harvested for the TG and TC test (A110-1-1 and A111-1-1, Nanjing Jiancheng Institute of Bioengineering, Nanjing, China) according to the manufacturer's instructions. The left lobe of the liver was collected for hematoxylin-eosin staining (H and E staining) to quantify liver steatosis, inflammation, and ballooning.
(§1) The liver samples were fixed in 10% formalin and embedded in paraffin using standard methods. The 4 μm paraffin sections were then assessed for liver histology by H and E staining and liver fibrosis by sirius red staining. The stained sections were panoramic scanned with a NanoZoomer Digital Pathology scanner (S210, Hamamatsu, Japan), and then observed with different visual fields at different magnifications, and scored for different liver lobes in the sections. The total NAS score represents the sum of the scores for steatosis (0–3), lobular inflammation (0–3), and ballooning (0–2), and ranges from 0–8 [30]. VIS7.0 software was used to analyze the area of liver fibrosis in the panoramic scanning SR staining sections, and the percentage of liver fibrosis area in the whole section area was calculated.

WD + CCL4 mouse model = assay: WD + CCL4 mouse model, biochemical, liver weight ratio and liver pathology; assay type: in vivo, C57/B6 mouse; details: for LDL-c / TG / HDL-c / TC / CK activity / AST / ALT: WD + CCL4 mouse serum; for LDL-c / TG / HDL-c / TC / CK activity / AST / ALT / L/B (liver/body weight ratio): mean ± SD; for LDL-c: model 1.1 ± 0.35, normal 0.43 ± 0.04; for TG: model 1.2 ± 0.34, normal 0.91 ± 0.14; for HDL-c: model 1.5 ± 0.25, normal 2.0 ± 0.08; for TC: model 4.1 ± 0.97, normal 3.0 ± 0.10; for CK activity: model 345 ± 268, normal 334 ± 193; for AST: model 10245 ± 4955, normal 116 ± 71; for ALT: model 14003 ± 4205, normal 54 ± 15; for L/B (liver/body weight ratio): model 3.5 ± 0.27, normal 3.5 ± 0.27
Method: C57/B6 mouse study: 61 C57/B6 mice ♂ aged 6–7 weeks were purchased from Beijing Vital River Laboratory Animal Technology Co., Ltd. Six animals were kept with a chow diet as normal control, and the other 55 animals were fed 60% fat diet (Western diet, D12492, Research diet) as the model group. […] Animals in the normal and model groups were given solvent by oral gavage. All drugs, including solvent, were administered consecutively for 4 weeks and once a day. After sacrifice, blood was collected and serum was isolated for the AST, ALT, TG, TC, LDL-c, HDL-c, and CK tests, and the livers were weighed to calculate the liver weight ratio. The left lobe of the liver of each mouse was collected for hematoxylin-eosin staining (H and E staining) and sirius red staining.
as §1

[2] = Observation of diarrhea in treated animals; assay type: in vivo, rodents; details: animal studies
[3] = heart, read-out: Heart concentration
[4] = liver, read-out: Liver concentration
[5] = serum, read-out: Serum concentration
[6] = 3 mg/kg (L) oral once a day 4 weeks
[7] = 10 mg/kg (CS27109-M, MGL-3196) oral once a day 4 weeks
[8] = 30 mg/kg (H) oral once a day 4 weeks
[9] = 5 mg/kg (L) oral once a day 4 weeks
[10] = 15 mg/kg (CS27109-M, MGL-3196) oral once a day 4 weeks
[11] = 45 mg/kg (H) oral once a day 4 weeks
[12] = HFD SD rat, 5 mg/kg (L) oral once a day 4 weeks
[13] = HFD SD rat, 15 mg/kg (CS27109-M, MGL-3196) oral once a day 4 weeks
[14] = HFD SD rat, 45 mg/kg (H) oral once a day 4 weeks
[15] = WD + CCL4 mouse, 4 weeks, MGL3196 10 mg/kg, CS27109 high-dose (30 mg/kg), vs model

average of concentration liver/heart ([1]; 10 mg/kg oral, average of 2H and 8H): 26.69
concentration at 2 h [1, 3]: 95.7 ng/g
concentration at 8 h [1, 3]: 309 ng/g
concentration at 2 h [1, 4]: 1670 ng/g
concentration at 8 h [1, 4]: 11100 ng/g
concentration at 2 h [1, 5]: 670 ng/mL
concentration at 8 h [1, 5]: 3620 ng/mL
CK activity (WD + CCL4 mouse model; [6]): 331 ± 386 U/L
CK activity (WD + CCL4 mouse model; [7]): 201 ± 95 U/L
CK activity (WD + CCL4 mouse model; [8]): 280 ± 147 U/L
diarrhea in treated animals [2]: rarely observed
SMILES: N#Cc1nn(-c2cc(Br)c(Oc3n[nH]c(=O)c4ccccc34)c(Br)c2)c(=O)[nH]c1=O [CS27109]
HDL-c (HFD-CHOL hamster model; [6]): 2.6 ± 0.62 mmol/L
LDL-c (HFD-CHOL hamster model; [6]): 13 ± 4.3 mmol/L
TG (HFD-CHOL hamster model; [6]): 32 ± 31 mmol/L
TC (HFD-CHOL hamster model; [6]): 29 ± 8.6 mmol/L
ALT (HFD-CHOL hamster model; [6]): 226 ± 104 U/L
AST (HFD-CHOL hamster model; [6]): 564 ± 317 U/L
HDL-c (HFD-CHOL hamster model; [7]): 3.0 ± 0.52 mmol/L
LDL-c (HFD-CHOL hamster model; [7]): 12 ± 3.8 mmol/L
TG (HFD-CHOL hamster model; [7]): 17 ± 26 mmol/L
TC (HFD-CHOL hamster model; [7]): 25 ± 7.4 mmol/L
ALT (HFD-CHOL hamster model; [7]): 141 ± 133 U/L
AST (HFD-CHOL hamster model; [7]): 582 ± 383 U/L
HDL-c (HFD-CHOL hamster model; [8]): 2.6 ± 0.53 mmol/L
LDL-c (HFD-CHOL hamster model; [8]): 8.7 ± 4.1 mmol/L
TG (HFD-CHOL hamster model; [8]): 11 ± 19 mmol/L
TC (HFD-CHOL hamster model; [8]): 19 ± 7.9 mmol/L
AST (HFD-CHOL hamster model; [8]): 416 ± 158 U/L
Liver TC (HFD SD rat model; [9]): 11 ± 1.1 µmol/g
Liver TG (HFD SD rat model; [9]): 71 ± 28 µmol/g
Liver TC (HFD SD rat model; [10]): 10 ± 0.74 µmol/g
Liver TG (HFD SD rat model; [10]): 54 ± 24 µmol/g
Liver TC (HFD SD rat model; [11]): 10 ± 2.2 µmol/g
Liver TG (HFD SD rat model; [11]): 69 ± 21 µmol/g
TG (HFD SD rat model; [9]): 0.19 ± 0.08 mmol/L
HDL-c (HFD SD rat model; [9]): 0.78 ± 0.18 mmol/L
LDL-c (HFD SD rat model; [9]): 1.6 ± 0.74 mmol/L
TC (HFD SD rat model; [9]): 4.4 ± 1.8 mmol/L
ALT (HFD SD rat model; [9]): 85 ± 34 U/L
AST (HFD SD rat model; [9]): 213 ± 78 U/L
TG (HFD SD rat model; [10]): 0.22 ± 0.06 mmol/L
HDL-c (HFD SD rat model; [10]): 0.98 ± 0.32 mmol/L
LDL-c (HFD SD rat model; [10]): 0.84 ± 0.44 mmol/L
TC (HFD SD rat model; [10]): 2.9 ± 0.98 mmol/L
ALT (HFD SD rat model; [10]): 68 ± 24 U/L
AST (HFD SD rat model; [10]): 218 ± 82 U/L
TG (HFD SD rat model; [11]): 0.20 ± 0.08 mmol/L
HDL-c (HFD SD rat model; [11]): 1.0 ± 0.30 mmol/L
LDL-c (HFD SD rat model; [11]): 0.59 ± 0.32 mmol/L
TC (HFD SD rat model; [11]): 2.3 ± 0.65 mmol/L
ALT (HFD SD rat model; [11]): 89 ± 50 U/L
AST (HFD SD rat model; [11]): 253 ± 131 U/L
liver steatosis score (H and E) (HFD SD rat model; HFD SD rat, 4 weeks, CS27109 5-45 mg/kg dose-dependent, MGL3196 15 mg/kg, vs model): lessened steatosis
liver inflammation score (H and E) (HFD SD rat model; HFD SD rat, 4 weeks, CS27109 5-45 mg/kg, MGL3196 15 mg/kg, vs model): dose-dependently reduced liver inflammation, but without a significant effect
NAS score (HFD SD rat model; HFD SD rat, 4 weeks, high dose CS27109 (45 mg/kg) only, vs model): decreased the NAS score
H/B (heart/body weight ratio) (HFD SD rat model; [12]): 0.27 ± 0.03%
L/B (liver/body weight ratio) (HFD SD rat model; [12]): 4.0 ± 0.52 %
H/B (heart/body weight ratio) (HFD SD rat model; [13]): 0.28 ± 0.02 %
L/B (liver/body weight ratio) (HFD SD rat model; [13]): 4.1 ± 0.56 %
H/B (heart/body weight ratio) (HFD SD rat model; [14]): 0.27 ± 0.02%
L/B (liver/body weight ratio) (HFD SD rat model; [14]): 3.9 ± 0.54 %
LDL-c (WD + CCL4 mouse model; [6]): 0.40 ± 0.10 mmol/L
TG (WD + CCL4 mouse model; [6]): 1.2 ± 0.34 mmol/L
HDL-c (WD + CCL4 mouse model; [6]): 0.85 ± 0.24 mmol/L
TC (WD + CCL4 mouse model; [6]): 2.3 ± 0.40 mmol/L
AST (WD + CCL4 mouse model; [6]): 13447 ± 6633 U/L
ALT (WD + CCL4 mouse model; [6]): 19162 ± 4012 U/L
LDL-c (WD + CCL4 mouse model; [7]): 0.37 ± 0.07 mmol/L
TG (WD + CCL4 mouse model; [7]): 1.2 ± 0.19 mmol/L
HDL-c (WD + CCL4 mouse model; [7]): 0.94 ± 0.25 mmol/L
TC (WD + CCL4 mouse model; [7]): 2.2 ± 0.36 mmol/L
AST (WD + CCL4 mouse model; [7]): 4804 ± 1121 U/L
ALT (WD + CCL4 mouse model; [7]): 10478 ± 2131 U/L
LDL-c (WD + CCL4 mouse model; [8]): 0.39 ± 0.11 mmol/L
TG (WD + CCL4 mouse model; [8]): 1.2 ± 0.18 mmol/L
HDL-c (WD + CCL4 mouse model; [8]): 1.2 ± 0.31 mmol/L
TC (WD + CCL4 mouse model; [8]): 2.4 ± 0.48 mmol/L
AST (WD + CCL4 mouse model; [8]): 3660 ± 1208 U/L
ALT (WD + CCL4 mouse model; [8]): 7832 ± 2422 U/L
liver inflammation score (H and E) (WD + CCL4 mouse model; [15]): notable reduction
liver steatosis score (H and E) (WD + CCL4 mouse model; [15]): notable reduction
liver ballooning score (H and E) (WD + CCL4 mouse model; WD + CCL4 mouse, 4 weeks, only low-dose CS27109 (3 mg/kg), vs model): significantly reduced liver ballooning
area of liver fibrosis (sirius red) (WD + CCL4 mouse model; WD + CCL4 mouse, 4 weeks, three doses of CS27109 (3, 10, 30 mg/kg), MGL3196 10 mg/kg, vs model): prominently reduced the area of the fibrosis
L/B (liver/body weight ratio) (WD + CCL4 mouse model; WD + CCL4 mouse, 3 mg/kg (L) oral once a day 4 weeks): 3.3 ± 0.40%
L/B (liver/body weight ratio) (WD + CCL4 mouse model; WD + CCL4 mouse, 10 mg/kg (CS27109-M, MGL-3196) oral once a day 4 weeks): 3.2 ± 0.68%
L/B (liver/body weight ratio) (WD + CCL4 mouse model; WD + CCL4 mouse, 30 mg/kg (H) oral once a day 4 weeks): 3.2 ± 0.79%
